# From PubChem BioAssay (NCI)
#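 Compound exposure: 48 hours, 5 concentrations, 96-well plates. The concentration for 50% growth inhibition is given as GI50. TGI marks complete inhibition of growth.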
# Columns and labels:
# Experiment in all cases: NCI anticancer screen, dose series, 48 h
# [1] = tested on: CCRF-CEM leukemia
# [2] = tested on: HCC-2998 colon
# [3] = tested on: IGROV1 ovarian
# [4] = tested on: MDA-MB-435
# [5] = tested on: NCI-H23 lung
# [6] = tested on: SF-295 CNS
# [7] = tested on: SK-OV-3 ovarian
# [8] = tested on: SNB-19 CNS
# [9] = tested on: NCI-H522 lung
# [10] = tested on: MDA-MB-231 breast
SMILES,TGI [1] [µM],TGI [2] [µM],TGI [3] [µM],TGI [4] [µM],TGI [5] [µM],TGI [6] [µM],TGI [7] [µM],TGI [8] [µM],TGI [9] [µM],GI50 [1] [µM],GI50 [2] [µM],GI50 [3] [µM],GI50 [10] [µM],TGI [10] [µM],GI50 [9] [µM],GI50 [6] [µM],GI50 [7] [µM],GI50 [8] [µM],GI50 [4] [µM],GI50 [5] [µM]
COc1cc(COC(=O)N(CC(=O)O)c2ccccc2)c([N+](=O)[O-])cc1OC,> 100,> 100,> 100,> 100,> 100,> 100,> 100,> 100,,,,,,,,,,,,
CC(=O)OC(CCC1(C)OC1COc1ccc(CCNC(=O)c2ccccc2)cc1)C(C)(C)OC(C)=O (stereo unspecified),> 100,,> 100,,97.2,> 100,> 100,,> 100,,,,,,,,,,,
COc1ccc(Nc2c3ccccc3nc3ccccc23)cc1,10.7,11.2,8.72,,,10.4,16.2,18.3,15.7,1.17,1.92,0.629,2.58,19.3,1.13,0.904,3.66,3.19,,
N#C/C(=C\NC(=S)c1ccncc1)c1nc2ccccc2s1,,> 100,> 100,> 100,> 100,> 100,> 100,> 100,> 100,,,,,> 100,,,,,,
COc1cc(/C=C/C(=O)c2ccc(NC(=O)CN3CCN(c4cc5c(cc4F)c(=O)c(C(=O)O)cn5C4CC4)CC3)cc2)cc(OC)c1OC,,14.1,3.37,,4.89,3.69,> 29.8,> 59.5,3.77,,3.16,0.671,0.712,6.36,0.976,0.98,2.58,2.71,0.433,0.971
C=C1CC/C=C(\C)C(=O)C[C@@H]2[C@@H]1CC2(C)C,,12.7,12.9,5.18,15.4,33.4,> 57.5,25.7,2.96,,,,,28.6,,,,,,
C=C(Br)N(CC)CC,> 100,> 100,> 100,,> 100,> 100,> 100,> 100,> 100,,,,,,,,,,,
O=C1c2ccccc2C(=O)c2c1ccc(C1C(=O)c3ccccc3C1=O)c2-c1c(C2C(=O)c3ccccc3C2=O)ccc2c1C(=O)c1ccccc1C2=O,,,> 100,> 100,,> 100,> 100,> 100,> 100,,,,,> 100,,,,,,
O=C(Nc1nc2ncn(CCNCc3ccccc3)c2c(=O)[nH]1)c1ccccc1,> 100,> 100,> 100,,,> 100,> 100,,> 100,,,,,,,,,,,
Cc1cccc2c(=O)c3c(sc12)c(NCCNCCO)nc1ccccc13,3.73,3.11,2.65,3.25,3.04,3.21,,,3.54,1.85,1.55,1.19,1.23,2.62,1.63,1.73,,,1.75,1.58
CC(=O)OCC1OC(SC2OC(COC(C)=O)C(OC(C)=O)C(OC(C)=O)C2OC(C)=O)C(OC(C)=O)C(OC(C)=O)C1OC(C)=O (stereo unspecified),> 100,> 100,> 100,> 100,> 100,> 100,> 100,> 100,,,,,,> 100,,,,,,
O=C(CC1(O)C(=O)Nc2c(Cl)cc(Cl)cc21)c1cccc2ccccc12 (stereo unspecified),41.3,,36.9,,32.8,29.2,30.2,27.9,28.9,,,,,,,,,,,
COC1OC(COCc2ccc(Cl)cc2)C(OCc2ccc(Cl)cc2)C1N=[N+]=[N-] (stereo unspecified),,> 100,> 100,,> 100,> 100,> 100,> 100,> 100,,,,,,,,,,,
O=[N+]([O-])c1cccc(-c2oc(C=Nc3ccccc3)c([N+](=O)[O-])c2-c2cccc([N+](=O)[O-])c2)c1,> 100,> 100,> 100,,> 100,> 100,> 100,,> 100,,,,,,,,,,,
O=C(O)c1cnc2[nH]ccn2c1=O,> 100,> 100,> 100,> 100,> 100,> 100,> 100,> 100,,,,,,> 100,,,,,,
O=C1C2C3C=CC(C2C(=O)N1COP(=O)(O)O)C1C2C(=O)N(COP(=O)(O)O)C(=O)C2C31 (stereo unspecified),> 60.7,> 100,> 100,,> 100,> 100,> 100,> 100,> 100,,,,,,,,,,,
O=[N+]([O-])c1cccc(C2ON2C2CCCCC2)c1 (stereo unspecified),36.7,30.9,44.8,,45.1,> 100,> 100,84.5,33.5,,,,,,,,,,,
COC(=O)CCC(=O)CC(=O)C(=O)Nc1c(Cl)cc([N+](=O)[O-])cc1Cl,> 100,> 100,> 100,,> 100,> 100,> 100,> 100,> 100,,,,,,,,,,,
CCOC(=O)C1=C(C)N(c2ccc(C)cc2)C2=C(C(=O)N(c3ccccc3)C2c2ccccc2)C1c1ccccc1 (stereo unspecified),> 25,> 25,> 25,,> 25,> 25,,> 25,,,,,,,,,,,,
COCCCNC(=O)CC(=O)NCCCOC,> 100,> 100,> 100,,> 100,> 100,,> 100,> 100,,,,,,,,,,,
CN(C)c1ccc(Nc2cc(-c3cccc(OC(F)(F)F)c3)nc3ccc(N4CCCC4)cc23)cc1,,3.36,3.06,3.37,4.39,3.57,25.7,13.7,4.73,,1.85,1.56,1.76,3.23,2.03,1.83,13.1,3.32,1.82,2.06
